From ChEMBL document CHEMBL1201862, “PubChem BioAssay data set” (2004)
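These data come from cells grown in 96-well plates and exposed to compound for 48 hours at five concentrations. GI50: concentration for 50% inhibition of growth.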 The source made the active and inactive calls. Cut-off read from the data, not from the text of the source: active = GI50 up to about 1.1 µM and inactive = higher. Positions of bridges follow the written chain, without caps; N, C: chain ends. Non-standard residues stand in square brackets, D forms with d. Residues, ends and D or L forms follow the SMILES beside them. Aib = CC(C)(N)C(=O)O; βAla = NCCC(=O)O

Legend:
Experiment in all cases: growth of human tumour cells (NCI), 48 h
[1] = test system: UO-31
[2] = test system: SF-539
[3] = test system: RXF 393
[4] = test system: A549
[5] = test system: K562
[6] = test system: SW-620
[7] = test system: HOP-92
[8] = test system: OVCAR-4
[9] = test system: Malme-3M
[10] = test system: HL-60
[11] = test system: TK-10
[12] = test system: RPMI-8226
[13] = test system: SF-268
[14] = test system: SK-MEL-2
[15] = test system: NCI-H23
[16] = test system: HOP-62
[17] = test system: CCRF-CEM
[18] = test system: PC-3
[19] = test system: SK-MEL-28
[20] = test system: SNB-75

Compound | GI50 [1] | GI50 [2] | GI50 [3] | GI50 [4] | GI50 [5] | GI50 [6] | GI50 [7] | GI50 [8] | GI50 [9] | GI50 [10] | GI50 [11] | GI50 [12] | GI50 [13] | GI50 [14] | GI50 [15] | GI50 [16] | GI50 [17] | GI50 [18] | GI50 [19] | GI50 [20]
COc1ccc(/N=N/c2c(C)c(C#N)c(=S)n(C3OC(COC(C)=O)C(OC(C)=O)C(OC(C)=O)C3OC(C)=O)c2-c2ccccc2)cc1 (stereo unspecified) | 39.8 µM (inactive) | > 10 µM (inactive) | 11.5 µM (inactive) | 8.18 µM (inactive) | 4.52 µM (inactive) | 2.92 µM (inactive) | 4.01 µM (inactive) | 3.15 µM (inactive) | 7.23 µM (inactive) | 3.13 µM (inactive) | 19.2 µM (inactive) | 5.65 µM (inactive) | 9.59 µM (inactive) | 8.04 µM (inactive) | 15.6 µM (inactive) | 11.6 µM (inactive) | 4.94 µM (inactive) | 5.98 µM (inactive) | 7.98 µM (inactive) | 
CCCCC/C(C=O)=C\c1ccccc1 | > 100 µM (inactive) | > 100 µM (inactive) | > 100 µM (inactive) |  | 20.3 µM (inactive) | > 100 µM (inactive) | > 100 µM (inactive) | > 100 µM (inactive) |  | > 100 µM (inactive) | > 100 µM (inactive) | > 100 µM (inactive) | > 100 µM (inactive) | > 100 µM (inactive) | > 100 µM (inactive) | > 100 µM (inactive) | 80.4 µM (inactive) | > 100 µM (inactive) | > 100 µM (inactive) | > 100 µM (inactive)
COc1ccc(Nc2nc(N)c(C(=O)c3ccco3)s2)cc1 | 29.3 µM (inactive) | 16.6 µM (inactive) | 31.8 µM (inactive) | 27.3 µM (inactive) | 4.72 µM (inactive) | 13.2 µM (inactive) | > 92.7 µM (inactive) | > 48.1 µM (inactive) | > 90.2 µM (inactive) | 5.04 µM (inactive) | 10.8 µM (inactive) | 16.6 µM (inactive) | 39.3 µM (inactive) | 23 µM (inactive) | > 61.4 µM (inactive) | > 63.8 µM (inactive) | 5.47 µM (inactive) | 53.6 µM (inactive) | > 88.7 µM (inactive) | 
CC(C)(C)C1CCC2c3c([nH]c4ccccc34)C3C(=O)N(c4ccccc4[N+](=O)[O-])C(=O)C3C2C1 (stereo unspecified) | 20.4 µM (inactive) | 21.5 µM (inactive) | 6.65 µM (inactive) | 7 µM (inactive) | 11.9 µM (inactive) | 11.5 µM (inactive) | 1.71 µM (inactive) |  | 16.4 µM (inactive) | 11.7 µM (inactive) | 17.7 µM (inactive) | 17.5 µM (inactive) | > 10 µM (inactive) | 14.9 µM (inactive) | 8.34 µM (inactive) | 4.53 µM (inactive) | 12.6 µM (inactive) | 7.6 µM (inactive) |  | 
COc1cc(/C=C2/C(=O)N(C(=O)c3ccccc3O)N=C2C)ccc1O | 0.17 µM (active) | 0.14 µM (active) | 0.0628 µM (active) | 0.358 µM (active) | 0.104 µM (active) | 1.36 µM (inactive) | 0.143 µM (active) | 1.28 µM (inactive) | 0.43 µM (active) | 0.536 µM (active) | 5.4 µM (inactive) | 1.06 µM (active) | 0.23 µM (active) | 1.01 µM (active) | 0.277 µM (active) | 1.77 µM (inactive) | 0.201 µM (active) | 0.802 µM (active) | 34.4 µM (inactive) | 
CC1(C)NC(=O)C(NC(=O)C(N)CC(=O)O)CCCCNC(=O)CCNC1=O (stereo unspecified) (H-DK[Aib][βAla]; lactam 2-C; configuration not given here) | > 100 µM (inactive) | > 100 µM (inactive) | > 100 µM (inactive) | > 100 µM (inactive) | > 100 µM (inactive) | > 100 µM (inactive) | > 100 µM (inactive) | > 100 µM (inactive) | > 100 µM (inactive) |  | > 100 µM (inactive) | > 100 µM (inactive) | > 100 µM (inactive) | > 100 µM (inactive) | > 100 µM (inactive) | > 100 µM (inactive) | > 100 µM (inactive) | > 100 µM (inactive) | > 100 µM (inactive) | > 100 µM (inactive)
